Columns and labels:
[1] = Pharmacokinetics after intravenous and oral dosing in rats; conditions: in vivo data in the rat
[2] = Pharmacokinetics after intra-tracheal dry powder dosing in the pig; format: in vivo; conditions: intra-tracheal 1 mg; lower limits of quantitation 10 (Example 1) and 20 pg/mL (fluticasone propionate)
Experimental: Serial blood samples were taken for up to 8h following dosing.

[3] = Pharmacokinetics after intravenous administration in the anaesthetised pig; format: in vivo; conditions: for clearance (comparison, in words): intravenous 0.1 mg/kg; for pharmacokinetic parameters (comparison, in words): intravenous mixture of the two compounds at 0.1 mg/kg
Excerpt: The clearance of these two glucocorticoids is similar is this experimental pig model.

rat hepatocytes = experiment: In vitro metabolism in rat hepatocytes; format: in vitro ADME; conditions: 17-β carboxylic acid (X) only significant metabolite
human hepatocytes = experiment: In vitro metabolism in human hepatocytes; format: in vitro ADME; conditions: 17-β carboxylic acid (X) only significant metabolite
lung eosinophilia = experiment: ovalbumin sensitised Brown Norway rat eosinophilia model; format: in vivo; conditions: intra-tracheal suspension in saline 30 min prior to ovalbumin challenge
Experimental: Pharmacological activity in vivo was assessed in an ovalbumin sensitised Brown Norway rat eosinophilia model. This model is designed to mimic allergen induced lung eosinophilia, a major component of lung inflammation in asthma.

NFκB = NFκB firefly luciferase reporter stimulated with TNFα, transrepression; format: cell-based; conditions: Homo sapiens, A549, read-out: Transrepression (NFκB) ED50 (nM)
Excerpt: The glucocorticoid receptor (GR) can function in at least two distinct mechanisms, by upregulating gene expression through the direct binding of GR to specific sequences in gene promoters, and by downregulating gene expression that is being driven by other transcription factors (such as NFκB or AP-1) through their direct interaction with GR.
The first cell line contains the firefly luciferase reporter gene under the control of a synthetic promoter that specifically responds to activation of the transcription factor NFκB when stimulated with TNFα. The second cell line contains the renilla luciferase reporter gene under the control of a synthetic promotor that comprises 3 copies of the consensus glucocorticoid response element, and which responds to direct stimulation by glucocorticoids. Simultaneous measurement of transactivation and transrepression was conducted by mixing the two cell lines in a 1:1 ratio in 96 well plate (40,000 cells per well) and growing overnight at 37° C. Test compounds were dissolved in DMSO, and added to the cells at a final DMSO concentration of 0.7%. After incubation for 1 h 0.5 ng/ml TNFα (R&D Systems) was added and after a further 15 hours at 37° C., the levels of firefly and renilla luciferase were measured using the Packard Firelite kit following the manufacturers' directions. Dose response curves were constructed from which EC50 values were determined.

SMILES: Cc1cc(C(=O)OC2(C(=O)SCF)C(C)CC3C4CC(F)C5=CC(=O)C=CC5(C)C4(F)C(O)CC32C)no1 (stereo not drawn) [Example 24, 6α,9α-Difluoro-11β-hydroxy-16α-methyl-17α-[(5-methylisoxazole-3-carbonyl)oxy]-3-oxo-androsta-1,4-diene-17β-carbothioic acid S-fluoromethyl ester]
- plasma clearance (in words) [1]: approaching hepatic blood flow

SMILES: Cc1cc(C(=O)OC2(C(=O)SCF)C(C)CC3C4CC(F)C5=CC(=O)C=CC5(C)C4(F)C(O)CC32C)on1 (stereo not drawn) [Example 25, 6α,9α-Difluoro-11β-hydroxy-16α-methyl-17α-[(3-methylisoxazole-5-carbonyl)oxy]-3-oxo-androsta-1,4-diene-17β-carbothioic acid S-fluoromethyl ester]
- plasma clearance (in words) [1]: approaching hepatic blood flow

SMILES: CC1CC2C3CC(F)C4=CC(=O)C=CC4(C)C3(F)C(O)CC2(C)C1(OC(=O)c1ccsc1)C(=O)SCF (stereo not drawn) [Example 4, 6α,9α-Difluoro-11β-hydroxy-16α-methyl-3-oxo-17α-[(3-thienylcarbonyl)oxy]-androsta-1,4-diene-17β-carbothioic acid S-fluoromethyl ester]
- plasma clearance (in words) [1]: approaching hepatic blood flow

SMILES: CCC(=O)O[C@]1(C(=O)SCF)[C@H](C)C[C@H]2[C@@H]3C[C@H](F)C4=CC(=O)C=C[C@]4(C)[C@@]3(F)[C@@H](O)C[C@@]21C [Fluticasone propionate, 6α,9α-Difluoro-17α-(1-oxopropoxy)-11β-hydroxy-16α-methyl-3-oxo-androsta-1,4-diene-17β-carbothioic acid S-fluoromethyl ester, reference compound]
- time after dosing up to which quantifiable in plasma [2]: up to 8 hours
- clearance (comparison, in words) [3]: similar
- pharmacokinetic parameters (comparison, in words) [3]: the same

SMILES: C[C@@H]1CC2C3C[C@H](F)C4=CC(=O)C=C[C@]4(C)[C@@]3(F)[C@@H](O)C[C@]2(C)[C@@]1(OC(=O)c1ccco1)C(=O)SCF (stereo partly drawn) [Example 1, 6α,9α-Difluoro-17α-[(2-furanylcarbonyl)oxy]-11β-hydroxy-16α-methyl-3-oxo-androsta-1,4-diene-17β-carbothioic acid S-fluoromethyl ester]
- manner of metabolism (rat hepatocytes): metabolised in an identical manner to fluticasone propionate
- manner of metabolism (human hepatocytes): metabolised in an identical manner to fluticasone propionate
- time after dosing up to which quantifiable in plasma [2]: up to 2 hours
- inhibition of lung eosinophilia (dose relation, in words) (lung eosinophilia): dose dependant inhibition
- plasma clearance (in words) [1]: approaching hepatic blood flow
- clearance (comparison, in words) [3]: similar
- pharmacokinetic parameters (comparison, in words) [3]: the same

SMILES: Cc1ccoc1C(=O)OC1(C(=O)SCF)C(C)CC2C3CC(F)C4=CC(=O)C=CC4(C)C3(F)C(O)CC21C (stereo not drawn) [Example 19, 6α,9α-Difluoro-11β-hydroxy-16α-methyl-17α-[(3-methylfuran-2-carbonyl)oxy]-3-oxo-androsta-1,4-diene-17β-carbothioic acid S-fluoromethyl ester]
- plasma clearance (in words) [1]: approaching hepatic blood flow

SMILES: C[C@@H]1C[C@H]2[C@@H]3C[C@H](F)C4=CC(=O)C=C[C@]4(C)[C@@]3(F)[C@@H](O)C[C@]2(C)[C@@]1(OC(=O)c1ccco1)C(=O)O [Metabolite (X)]
- EC50 (NFκB): > 1000 nM

SMILES: CC1CC2C3CC(F)C4=CC(=O)C=CC4(C)C3(F)C(O)CC2(C)C1(OC(=O)c1ccon1)C(=O)SCF (stereo not drawn) [Example 28, 6α,9α-Difluoro-11β-hydroxy-17α-[(isoxazole-3-carbonyl)oxy]-16α-methyl-3-oxo-androsta-1,4-diene-17β-carbothloic acid S-fluoromethyl ester]
- plasma clearance (in words) [1]: approaching hepatic blood flow

Reference: patent US20050175545A1, “Formulation for inhalation comprising a glucocorticoid and a beta 2-adrenoreceptor agonist” (priority 2002, published 2005)
